Molecular target: PrP (Mesocricetus auratus, UniProt P04273)
Format: binding, hamster

Chain of PrP (P04273 23-231 limits assumed): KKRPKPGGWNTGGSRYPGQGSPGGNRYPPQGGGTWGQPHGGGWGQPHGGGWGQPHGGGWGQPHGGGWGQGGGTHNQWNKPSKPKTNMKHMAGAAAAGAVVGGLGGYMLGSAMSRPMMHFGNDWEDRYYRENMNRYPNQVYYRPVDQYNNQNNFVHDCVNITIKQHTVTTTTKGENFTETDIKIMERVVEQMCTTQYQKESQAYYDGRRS

Nc1c(/N=N/c2ccc(-c3ccc(/N=N/c4cc(S(=O)(=O)O)c5ccccc5c4N)cc3)cc2)cc(S(=O)(=O)O)c2ccccc12 [Congo red]
inhibition of binding of PrP to RADA (Congo red pre-incubated with PrP before RADA exposure): dose-dependent inhibition
Congo red concentration with significant inhibition of PrP binding (Congo red pre-incubation with PrP, Mann-Whitney): 1 µM
inhibition of binding of PrP (RADA pre-incubated with Congo red before or after plate binding): ineffective

Source: patent publication US10570172B1 (priority 2008, dated 2020)
